This is an account of results in US5855885A, “Isolation and production of catalytic antibodies using phage technology” (priority 1994, dated 1999).

The subject of assay [1] is mouse RT3 phage antibody scFv clone 68 (PCR pattern D). Nature of the assay: competitive inhibition ELISA, scFv binding to RT3-BSA. To be noted: 100 uM competitor, preincubated 1 hour at room temperature; ELISA signal normalized to no inhibitor (FIG. 8); clone cross-reacts with BSA. How it is done:
(§1) The clones selected for analysis and their corresponding PCR pattern (see Table 1, Example 4.3) were: 50 (PCR B), 64 (PCR A), 68 (PCR D), 71 (PCR E), 80 (PCR C), 84 (PCR A), 95 (PCR I), 96 (PCR A), and 97 (PCR A). Soluble scFv was purified from 50 ml cultures of each clone using the IMAC protocol described in Example 4.1, except bound antibody was eluted with 50 mM EDTA, 0.5M NaCl. The scFv concentration for each clone was estimated from silver stained SDS polyacrylamide gels by running a portion of the eluted protein on a gel containing appropriate scFv concentration standards. The scFv protein was diluted to 4 ug/ml and then serially diluted 1:2 across 11 wells of RT3-BSA coated ELISA plate. The concentration of scFv giving 50% of the maximum ELISA signal was determined from the titration. This concentration of scFv was used for a subsequent competitive inhibition assay described below.
(§2) A competitive inhibition ELISA assay was performed by incubating scFV (at a concentration as determined by titration above) with 100 uM of each of the following compounds: RT3 hapten (Compound 7, FIG. 1), left hand portion of RT3 hapten (designated RT3A, Compound 8, FIG. 2), right hand portion of RT3 hapten (designated RT3B, Compound 12, FIG. 3), The left and right hand portions of the expected products from the esteriolytic cleavage of substrate (Compound 15, FIG. 4) designated Product A (Mesitylacetic acid, FIG. 4) and Product B (Compound 13, FIG. 4). The scFv was preincubated with the inhibitor compound in tubes at room temperature for 1 hour prior to addition to RT3-BSA coated ELISA wells. The […] readings have been normalized to a value of 1, which represents the ELISA signal seen for the corresponding scFv in the absence of added competitive inhibitor.
For orientation: In an ELISA, binding on a coated surface is turned into a signal by an enzyme label.

Assay [2] deals with mouse RT3 phage antibody scFv clone 71 (PCR pattern E). The description is as above. To be noted: 100 uM competitor, preincubated 1 hour at room temperature; ELISA signal normalized to no inhibitor (FIG. 8); clone cross-reacts with BSA. The method, then:
as §1, §2

For assay [3], the system named is mouse anti-RT3 scFv clone 50 (PCR pattern B). The assay is described as above. As to conditions: 100 uM competitor, preincubated 1 hour at room temperature; ELISA signal normalized to no inhibitor (FIG. 8). The method, then:
as §1, §2

The test system of assay [4] is mouse anti-RT3 scFv clone 64 (PCR pattern A). The description is as above. As to conditions: 100 uM competitor, preincubated 1 hour at room temperature; ELISA signal normalized to no inhibitor (FIG. 8). The method, then: as §1, §2
Assay [5] relates to mouse anti-RT3 scFv clone 80 (PCR pattern C). The description is as above. As to conditions: 100 uM competitor, preincubated 1 hour at room temperature; ELISA signal normalized to no inhibitor (FIG. 8). The method, then:
as §1, §2

Assay [6] deals with mouse anti-RT3 scFv clone 84 (PCR pattern A). The assay is described as above. To be noted: 100 uM competitor, preincubated 1 hour at room temperature; ELISA signal normalized to no inhibitor (FIG. 8). How it is done:
as §1, §2

For assay [7], the system named is mouse anti-RT3 scFv clone 95 (PCR pattern I). Described as above. As to conditions: 100 uM competitor, preincubated 1 hour at room temperature; ELISA signal normalized to no inhibitor (FIG. 8). How it is done: as §1, §2
Assay [8] relates to mouse anti-RT3 scFv clone 96 (PCR pattern A). Described as above. To be noted: 100 uM competitor, preincubated 1 hour at room temperature; ELISA signal normalized to no inhibitor (FIG. 8). How it is done: as §1, §2
The subject of assay [9] is mouse anti-RT3 scFv clone 97 (PCR pattern A). The description is as above. As to conditions: 100 uM competitor, preincubated 1 hour at room temperature; ELISA signal normalized to no inhibitor (FIG. 8). The method, then: as §1, §2
The test system of assay [10] is catalytic mouse anti-RT3 scFv clone 18. Description: catalytic assay (HPLC), hydrolysis of RT3 substrate by scFv. In kind it is biochemical. How it is done: (§3) To further examine the scFv fragments for catalytic activity, the potentially-catalytic proteins identified in the early screen described above were individually grown and purified. Purification of the scFv was acheived as described in Example 6.1 using either IMAC or affinity chromotagraphy on anti-Myc-Protein A agarose. Assays were performed in the same buffer systems and pH values as in the early screen but the antibodies were tested individually and they were not immobilized but free in solution.
(§4) From these secondary assays, two scFv molecules, designated 18 and 83, catalytic activity was found. Clone 18 appeared to be active at pH 9.0 but not at pH 7.0 while clone 83 appeared to be active at pH 7.0 but not at pH 9.0 or 5.0. […] These two clones were selected as candidates for large scale purifcation of scFv as described below. The results of these assays are presented in Example 6.4.
For clone 18 a typical catalytic assay was set up as follows: 50 μl of scFv was added to 145 μl of RT3 substrate (Compound 15, FIG. 4) and 5 μl of water or for some assays 5 μl of RT3 hapten. A blank consisting of 50 μl of water and […] of RT3 substrate was set up to monitor the background hydrolysis of the RT3 substrate. The reaction was allowed to proceed for 6 hours after which samples were frozen at -20° C. to stop the reaction. Samples were analyzed by HPLC as described in example 5.1. […]

Assay [11] deals with catalytic mouse anti-RT3 scFv clone 83. The description is as above. In kind it is biochemical. The method, then: as §3, §4
Assay of IMAC or HIC purified scFv from clone 83 was done in a similar manner as described for clone 18 with the following exceptions. Substrate was buffered in 25 mM HEPES, pH 7.0, 140 mM NaCl and 0.01% NaN3. Due to the lower background hydrolysis of RT3 substrate at neutral pH, reactions were typically run for 24 hours. A blank was also analyzed and gives a profile similar to the that in FIG. 17B (data not shown).

Consider `NC(=O)Cc1ccc(O)cc1` [Product B, 4-Hydroxyphenylacetamide], for which the “inhibition of scFv binding to RT3-BSA” value in [1], in assay [2], in [3], in assay [4], in assay [5] and in [6] was “No inhibition” each time. Besides, the “inhibition of scFv binding to RT3-BSA” value in assay [7], in assay [8] and in assay [9] was “No inhibition” each time.
As to `Cc1cc(C)c(CC(=O)O)c(C)c1` [Product A, Mesitylacetic acid, reference compound], the “inhibition of scFv binding to RT3-BSA” value in assay [4] and in assay [8] was “to a lesser extent” each time.
For `COP(=O)(O)Cc1c(C)cc(C)cc1C` [RT3A], the “inhibition of scFv binding to RT3-BSA” value in assay [3], in assay [4], in assay [6], in assay [8] and in [9] was “binding inhibition” in each case.
With `Cc1cc(C)c(CP(=O)(O)Oc2ccc(CC(=O)O)cc2)c(C)c1` [RT3 hapten, 4-(carboxymethyl) phenyl-(2,4,6-trimethylphenyl)-methyl phosphonate], the “inhibition of scFv binding to RT3-BSA” value is “did not show inhibition” in assay [1]; “did not show inhibition” in assay [2]; “inhibited” in [3]; “inhibited” in [4]; “inhibited” in [5]; “inhibited” in [6]. Also, the “inhibition of scFv binding to RT3-BSA” value in [7], in [8] and in assay [9] was “inhibited” in each case. Besides, the “catalysis in the presence of RT3 hapten” value in [10] (IMAC pure scFv, 50 uM RT3 substrate, pH 9.0, 6 hours, 5 μl RT3 hapten added (concentration not given), FIG. 15B) is on record as “completely abrogated”; in assay [11] (IMAC pure scFv, RT3 substrate, pH 7.0, 24 hours, RT3 hapten added (concentration not given), FIG. 17B), “completely abrogated”. The “inhibition of catalytic activity” value is on record as “significantly inhibited” in assay [10] (secondary screening, pH 9.0, 10 μM antibody, 40 μM substrate, 30 μM hapten) and “significantly inhibited” in [11] (secondary screening, pH 7.0, 10 μM antibody, 40 μM substrate, 30 μM hapten).
